Here are results for 2 compounds from patent US10766864B2, “Morphinan derivatives for the treatment of neuropathic pain” (Nektar Therapeutics, priority 2015, dated 2020).

pIC50: −log10 of the molar value.

Data set [1] deals with mu opioid receptor (MOR) (Homo sapiens (Human), UniProt P35372). The data set can be described thus: Competitive radioligand binding at MOR ([3H] Naloxone). The conditions noted are these: membranes from CHO-K1 cells expressing MOR; 2 nM [3H] Naloxone; reflects free base activity; read-out: MOR IC50.
The target in data set [2] is NMDA receptor. The data set can be described thus: Competitive radioligand binding at NMDA receptor ([3H] MK801), rat forebrain membranes. The conditions noted are these: 0.2 nM [3H] MK801, reflects free base activity.
Data set [3] has as its target hMOR (Homo sapiens (Human), UniProt P35372). The data set can be described thus: cAMP accumulation assay (inhibition of forskolin-stimulated cAMP) in CHO-K1 cells stably expressing hMOR. Format: cell-based. The conditions noted are these: hMOR-expressing CHO-K1 cells; 10 μM forskolin; 60 minute incubation; read-out: MOR cAMP IC50. The method, then:
Mu opioid agonist activity for selected compounds was determined by the inhibition of forskolin-stimulated cAMP accumulation following MOR activation in CHO-K1 cells stably expressing the hMOR. […] IC50 values were calculated from […] analysis of the concentration-response curves using Graph Pad Prizm.
A general note: Cyclic AMP is a second messenger, typically raised through Gs and lowered through Gi signalling.

For data set [4], the system named is rat formalin paw model of persistent pain. In words: Automated formalin paw test, oral administration. Format: in vivo. The conditions noted are these: at at least one dosage between 10 mg/kg and 300 mg/kg (inclusive), in the presence of 1-aminobenzotriazole. The method, then: The in vivo efficacy of selected compounds following oral administration was measured using the rat formalin model of persistent pain. Test compounds were administered 30-60 minutes prior to injection of 5% formalin to the hind-paw of rats and paw movements were measured using the automated Nociception Analyzer (ANA Instrument; University of California, San Diego) for 60 minutes post-formalin. In some experiments, rats were pre-treated 16-22 hours priors to the experiment with the cytochrome-P450 inhibitor, 1-aminobenzotriazole (ABT), to assess the activity of compounds in the absence of significant quantities of metabolites. ED50 values (mg/kg) were calculated from non-linear regression analyses of the cumulative number of flinches in Phase II (10-60 mins) versus dose of test compounds.
In the rat formalin paw model of persistent pain, compounds 83, 113, 114 and 115 (described in Examples 83, 113, 114 and 115, respectively) were tested. In each case, the oral efficacy of the compounds was measured in the presence and absence of the cytochrome CYP-450 inhibitor, 1-aminobenzotriazole.

The conditions of data set [5]: Phase II clinical study; cited from earlier work.

For orientation: pIC50 means the IC50 on a negative log10 scale, so that one unit is a factor of ten. As to `CN1CC[C@]23CCCC[C@H]2[C@H]1Cc1cc2sc(N)nc2cc13` [Compound 115, (4aR,5R,11bR)-14-methyl-2,3,4,4a,5,6-hexahydro-1H-5,11b-(epiminoethano)phenanthro[3,2-d]thiazol-9-amine], the pIC50 in data set [1] is 7.00 to 8.00; in data set [2], 7.00 to 10.00; in data set [3], 7.00 to 8.00. In data set [4], the “oral efficacy in Phase I and Phase II of the rat formalin paw model” value is recorded as “statistically significant efficacy”.
On to `CN1CC[C@]23CCCC[C@H]2[C@H]1Cc1ccc(O)cc13` [levorphanol, 17-Methylmorphinan-3-ol], for which, in data set [5], the “reduction of neuropathic pain” value is on record as “effective in reducing neuropathic pain” and the side effects entry is “severe dose-limiting side effects”.
